These are literature values, as cited in US20100055178A1, “ENTERIC-COATED CREATINE COMPOSITIONS AND METHODS OF USE THEREOF” (priority 2008, published 2010).

The conditions of series [1]: 5 grams, 4-6 times a day, for two or more days, oral.
The conditions of series [2]: acidic solutions, pH 3-6.

`CN(CC(=O)O)C(=N)N` [creatine]: the total creatine concentration result in series [1] is on record as “significant increase”. Also, in series [2], the “rate of conversion of creatine to creatinine” value is on record as “almost instantaneous”.
